# Experimental data: ChEMBL document CHEMBL1136512, “Discovery of a novel series of 6-azauracil-based thyroid hormone receptor ligands: potent, TR beta subtype-selective thyromimetics” (Bioorg Med Chem Lett, 2003)
# Target: T1, Thyroid hormone receptor beta (Homo sapiens, UniProt P10828)
# T1 sequence (P10828 whole entry): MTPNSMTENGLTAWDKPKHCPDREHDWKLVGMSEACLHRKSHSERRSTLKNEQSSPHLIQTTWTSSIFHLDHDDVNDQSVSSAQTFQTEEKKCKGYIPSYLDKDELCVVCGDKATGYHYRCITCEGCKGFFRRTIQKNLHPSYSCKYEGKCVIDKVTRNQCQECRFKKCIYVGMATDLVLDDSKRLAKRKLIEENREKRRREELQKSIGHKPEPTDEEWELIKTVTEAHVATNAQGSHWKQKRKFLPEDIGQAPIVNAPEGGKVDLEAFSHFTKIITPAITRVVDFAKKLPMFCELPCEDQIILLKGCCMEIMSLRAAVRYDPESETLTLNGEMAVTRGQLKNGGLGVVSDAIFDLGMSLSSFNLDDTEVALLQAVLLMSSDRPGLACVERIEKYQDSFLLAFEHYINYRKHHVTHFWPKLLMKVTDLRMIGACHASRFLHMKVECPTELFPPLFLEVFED
# Experiment: Effective concentration binding towards TR-beta-1 in E25B2 cells (agonistic activity)
row,Compound,EC50 [nM]
1,O=c1cnn(-c2cc(Cl)c(Oc3ccc(O)c(S(=O)(=O)N4C5CCC4CC4(CCCO4)C5)c3)c(Cl)c2)c(=O)[nH]1 (stereo unspecified),62

# Target: T1, Thyroid hormone receptor beta
row,Compound,Ki [nM]
1,O=c1cnn(-c2cc(Cl)c(Oc3ccc(O)c(S(=O)(=O)N4C5CCC4CC4(CCCO4)C5)c3)c(Cl)c2)c(=O)[nH]1 (stereo unspecified),0.28
2,Cc1cc(-n2ncc(=O)[nH]c2=O)cc(Cl)c1Oc1ccc(O)c(C(=O)N2CCCCC2)c1,1.9
3,O=c1cnn(-c2cc(Cl)c(Oc3ccc(O)c(S(=O)(=O)n4ccc5ccccc54)c3)c(Cl)c2)c(=O)[nH]1,0.23
4,O=c1cnn(-c2cc(Cl)c(Oc3ccc(O)c(S(=O)(=O)NC4CCC4)c3)c(Cl)c2)c(=O)[nH]1,0.4
5,CSc1ccc(Oc2c(C)cc(-n3ncc(=O)[nH]c3=O)cc2C)cc1C,2
6,Cc1cc(-n2ncc(=O)[nH]c2=O)cc(C)c1Oc1ccc(O)c(S(=O)(=O)N2CCCCC2)c1,0.46
7,O=C(c1cc(Oc2c(Cl)cc(-n3ncc(=O)[nH]c3=O)cc2Cl)ccc1O)N1CC2CCC1C2 (racemic; exo),0.59
8,Cc1cc(-n2ncc(=O)[nH]c2=O)cc(Cl)c1Oc1ccc(O)c(S(=O)(=O)N2CCCCC2)c1,0.13
9,Cc1cc(N2CCCNC2=O)cc(C)c1Oc1ccc(O)c(C(C)C)c1,10000
10,O=C(c1cc(Oc2c(Cl)cc(-n3ncc(=O)[nH]c3=O)cc2Cl)ccc1O)N1CCCCC1,0.63
11,Cc1cc(-n2ncc(=O)[nH]c2=O)cc(Cl)c1Oc1ccc(O)c(S(=O)(=O)N2CCN(C)CC2)c1,13
12,O=c1cnn(-c2cc(Cl)c(Oc3ccc(O)c(S(=O)(=O)NC4CCCCC4)c3)c(Cl)c2)c(=O)[nH]1,0.46
13,O=C(c1cc(Oc2c(Cl)cc(-n3ncc(=O)[nH]c3=O)cc2Cl)ccc1O)N1CCOCC1,0.72
14,O=C(NC1CCCCC1)c1cc(Oc2c(Cl)cc(-n3ncc(=O)[nH]c3=O)cc2Cl)ccc1O,0.07

# The next lines start with the values.
row,Ki [nM],Compound
1,0.64,O=C(NC1CCC1)c1cc(Oc2c(Cl)cc(-n3ncc(=O)[nH]c3=O)cc2Cl)ccc1O
2,0.31,O=c1cnn(-c2cc(Cl)c(Oc3ccc(O)c(S(=O)(=O)N4C5CCC4CC4(C5)OCCO4)c3)c(Cl)c2)c(=O)[nH]1
3,27,Cc1cc(-n2ncc(=O)[nH]c2=O)cc(Cl)c1Oc1ccc(O)c(S(=O)(=O)N2CCOCC2)c1
4,0.37,O=C(c1cc(Oc2c(Cl)cc(-n3ncc(=O)[nH]c3=O)cc2Cl)ccc1O)N1CC2CCC1C2 (stereo in doubt; 9h (R)-(+))
5,0.06,CC1(C)C2CCC(NC(=O)c3cc(Oc4c(Cl)cc(-n5ncc(=O)[nH]c5=O)cc4Cl)ccc3O)C1C2 (stereo in doubt; 9i)
6,0.02,O=c1cnn(-c2cc(Cl)c(Oc3ccc(O)c(S(=O)(=O)N4CCCCC4)c3)c(Cl)c2)c(=O)[nH]1
7,0.1,O=c1cnn(-c2cc(Cl)c(Oc3ccc(O)c(S(=O)(=O)Nc4ccccc4)c3)c(Cl)c2)c(=O)[nH]1
8,0.16,O=C(c1cc(Oc2c(Cl)cc(-n3ncc(=O)[nH]c3=O)cc2Cl)ccc1O)N1CC2CCC1C2 (racemic; endo)
9,0.04,CC1(C)C2CCC(NC(=O)c3cc(Oc4c(Cl)cc(-n5ncc(=O)[nH]c5=O)cc4Cl)ccc3O)C1C2 (stereo in doubt; 9j)

# Target: T2, Thyroid hormone receptor alpha (Homo sapiens, UniProt P10827)
# T2 sequence (P10827 whole entry): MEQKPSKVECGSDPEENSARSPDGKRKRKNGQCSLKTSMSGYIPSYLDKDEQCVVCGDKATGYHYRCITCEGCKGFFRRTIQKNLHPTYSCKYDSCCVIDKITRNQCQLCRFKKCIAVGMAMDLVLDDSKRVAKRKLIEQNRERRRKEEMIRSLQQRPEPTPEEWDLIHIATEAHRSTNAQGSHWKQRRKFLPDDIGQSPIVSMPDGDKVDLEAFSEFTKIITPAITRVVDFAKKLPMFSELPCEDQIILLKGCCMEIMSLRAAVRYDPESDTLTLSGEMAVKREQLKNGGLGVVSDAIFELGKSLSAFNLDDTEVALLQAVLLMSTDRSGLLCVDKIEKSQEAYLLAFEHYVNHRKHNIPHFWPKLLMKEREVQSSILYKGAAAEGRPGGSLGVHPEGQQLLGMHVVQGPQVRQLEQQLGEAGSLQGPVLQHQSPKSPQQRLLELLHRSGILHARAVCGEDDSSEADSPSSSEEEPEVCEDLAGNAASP
# Description: Effective concentration binding towards TRalpha in E25B2 cells (agonistic activity)
row,Compound,EC50 [nM]
1,O=c1cnn(-c2cc(Cl)c(Oc3ccc(O)c(S(=O)(=O)N4C5CCC4CC4(CCCO4)C5)c3)c(Cl)c2)c(=O)[nH]1 (stereo unspecified),1500
2,CC1(C)C2CCC(NC(=O)c3cc(Oc4c(Cl)cc(-n5ncc(=O)[nH]c5=O)cc4Cl)ccc3O)C1C2 (stereo in doubt; 9i),12
